Where a name gives a salt, the structure may show the parent alone.

One experiment has as its target T1, hNav1.7 (Homo sapiens (Human), UniProt Q15858). Briefly: Patch voltage clamp electrophysiology assay (EP), Syncropatch 384PE, CHO cells expressing Nav1.7. Conditions: holding potential −50 mV, 7.5 min compound incubation; read-out: EP_SP hNav1.7 EVO IC50. Format: cell-based. An excerpt: Example 64c. Electrophysiological Assay (EP) (In Vitro Assay)
Patch voltage clamp electrophysiology allows for the direct measurement and quantification of block of voltage-gated sodium channels (NaV's), and allows the determination of the time- and voltage-dependence of block which has been interpreted as differential binding to the resting, open, and inactivated states of the sodium channel (Hille, B., Journal of General Physiology (1977), 69: 497-515).
The following voltage clamp electrophysiology studies are performed on representative compounds using cells heterologously expressing Nav1.7 or Nav1.5 channels. cDNAs for Nav1.7 (NM 002977) and Nav1.5 (AC137587) are stably expressed in Chinese Hamstr Ovary (CHO) cells and CHL (Chinese Hamster Lung) cells respectively. Sodium currents are measured in the whole-cell configuration using Syncropatch 384PE ([…], Germany). 1NPC®-384 chips with custom medium resistance and single hole mode are used. Internal solution consists of (in mM): […], 10CsCl, 20EGTA, and 10Hepes (pH adjusted to 7.2); and external solution contains (in mM): 60NMDG, 80NaCl, 4 KCl, 1MgCl2, 2CaCl2, 2D-Glucose monohydrate, 10Hepes (pH adjusted to 7.4 with NaOH).
After system flushing, testing compounds are dissolved in external solution containing 0.1% Pluronic F-127. The chip is moved into the measuring head and the instrument primes the chip with external and internal solutions. 10 μl cells are added to the chip from a cell hotel, and a negative pressure of −50 mBar is applied to form a seal. Following treatment with seal enhancer solution and wash-off with external solution, negative pressure of −250 mbar is applied for 1 second to achieve the whole-cell configuration, followed by three washing steps in external solution. 20 μl of compounds is added to 40 μl in each well (1:3 dilution of compounds), and after mixing, 20 μl is removed so the volume is retained at 40 ul. After approximately 13 minutes recordings, 20 μl/well of 2 uM TTX, or 333 uM Tetracaine (for Nav1.5) is added to achieve full block.
For voltage protocol, an holding potential of −50 mV is applied during the whole experiment. A depolarizing step is applied to −10 mV for 10 ms, followed by a hyperpolarization step to −150 mV for 20 ms to allow channel recovery from inactivation. A second depolarizing step is applied from −150 mV to −10 mV for 10 ms, where currents are measured to derive blocking effects of compounds. Inhibition is determined based on 7.5 min of compound incubation.
A general note: The patch-clamp technique gives a direct electrical read-out from membranes.
Target sequence in this assay (Q15858 other isoform, or with tags, fused parts or gaps): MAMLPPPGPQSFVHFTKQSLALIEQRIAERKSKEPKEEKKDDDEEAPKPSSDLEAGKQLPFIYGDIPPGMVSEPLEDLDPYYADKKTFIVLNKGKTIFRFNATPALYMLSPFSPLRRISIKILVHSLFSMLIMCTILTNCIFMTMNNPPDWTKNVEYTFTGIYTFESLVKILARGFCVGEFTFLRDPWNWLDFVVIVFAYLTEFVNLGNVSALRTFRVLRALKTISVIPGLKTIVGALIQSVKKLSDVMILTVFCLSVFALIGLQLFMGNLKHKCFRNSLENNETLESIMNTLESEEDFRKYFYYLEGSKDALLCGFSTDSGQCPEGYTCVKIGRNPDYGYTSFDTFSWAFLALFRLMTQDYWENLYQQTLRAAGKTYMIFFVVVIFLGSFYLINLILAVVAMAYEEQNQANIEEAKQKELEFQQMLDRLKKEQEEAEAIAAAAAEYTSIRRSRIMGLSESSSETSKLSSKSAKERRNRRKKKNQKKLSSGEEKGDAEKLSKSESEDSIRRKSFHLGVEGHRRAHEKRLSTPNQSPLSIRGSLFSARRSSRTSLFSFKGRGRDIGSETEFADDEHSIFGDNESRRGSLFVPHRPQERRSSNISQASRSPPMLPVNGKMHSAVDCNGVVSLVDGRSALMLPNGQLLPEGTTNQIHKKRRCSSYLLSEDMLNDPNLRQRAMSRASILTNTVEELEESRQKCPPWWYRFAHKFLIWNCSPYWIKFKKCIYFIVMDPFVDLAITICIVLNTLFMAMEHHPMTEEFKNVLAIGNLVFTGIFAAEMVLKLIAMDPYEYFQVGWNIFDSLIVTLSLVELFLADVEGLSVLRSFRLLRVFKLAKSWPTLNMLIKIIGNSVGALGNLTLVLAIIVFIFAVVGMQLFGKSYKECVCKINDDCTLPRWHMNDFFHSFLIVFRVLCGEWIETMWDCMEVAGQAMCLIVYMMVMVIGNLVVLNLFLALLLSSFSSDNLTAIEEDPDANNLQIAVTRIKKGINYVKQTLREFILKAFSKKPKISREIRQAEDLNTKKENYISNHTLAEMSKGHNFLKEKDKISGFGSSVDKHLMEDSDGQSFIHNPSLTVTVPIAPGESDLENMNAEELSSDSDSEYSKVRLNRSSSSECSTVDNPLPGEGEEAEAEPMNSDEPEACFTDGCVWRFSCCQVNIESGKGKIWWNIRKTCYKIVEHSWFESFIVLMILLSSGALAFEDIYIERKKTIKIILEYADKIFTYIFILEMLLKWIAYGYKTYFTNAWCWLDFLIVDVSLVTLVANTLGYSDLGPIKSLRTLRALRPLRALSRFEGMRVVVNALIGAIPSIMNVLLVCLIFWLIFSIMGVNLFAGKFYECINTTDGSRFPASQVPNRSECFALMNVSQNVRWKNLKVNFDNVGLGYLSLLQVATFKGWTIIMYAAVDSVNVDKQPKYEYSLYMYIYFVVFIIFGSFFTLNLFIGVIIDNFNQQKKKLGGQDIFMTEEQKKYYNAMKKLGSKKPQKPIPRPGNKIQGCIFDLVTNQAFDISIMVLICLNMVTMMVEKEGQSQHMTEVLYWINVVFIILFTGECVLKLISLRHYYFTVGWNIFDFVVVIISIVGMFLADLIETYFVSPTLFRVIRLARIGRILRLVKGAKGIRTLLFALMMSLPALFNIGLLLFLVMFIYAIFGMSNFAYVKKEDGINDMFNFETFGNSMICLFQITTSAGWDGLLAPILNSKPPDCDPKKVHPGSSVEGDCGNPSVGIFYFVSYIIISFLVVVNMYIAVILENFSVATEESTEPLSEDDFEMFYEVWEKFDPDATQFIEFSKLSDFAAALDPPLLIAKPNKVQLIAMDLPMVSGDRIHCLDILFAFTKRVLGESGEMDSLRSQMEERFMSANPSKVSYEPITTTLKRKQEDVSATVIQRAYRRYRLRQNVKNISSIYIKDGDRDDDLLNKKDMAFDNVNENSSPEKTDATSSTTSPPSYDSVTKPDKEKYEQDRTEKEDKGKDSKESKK
Take “6-(((1S,2S,4S)-2-(dimethylamino)-4-(6-(trifluoromethyl)pyridin-2-yl)cyclohexyl)oxy)-2-methyl-N-(pyrimidin-4-yl)pyridine-3-sulfonamide [Example 51]”: the IC50 worked out at 4.59 nM.

`CN(C)[C@H]1C[C@@H](c2cccc(OC(F)(F)F)c2)CC[C@@H]1Nc1ccc(S(=O)(=O)Nc2ccncn2)cn1` [Example 8, 6-(((1S,2S,4S)-2-(dimethylamino)-4-(3-(trifluoromethoxy)phenyl)cyclohexyl)amino)-N-(pyrimidin-4-yl)pyridine-3-sulfonamide formate]: the IC50 is 0.574 nM.

Another experiment addresses T1, hNav1.7. Briefly: Tritiated compound binding to membranes from cells expressing hNav1.7 and the β1 subunit (Nav1.7 LBA EVO). Conditions: competitive binding vs [3H]compound, membranes with hNav1.7 and β1 subunit. On the procedure: Example 64a. Tritiated Compound Binding to Membranes Isolated from Cells that Heterologously Express hNav1.7 and the β1 Subunit
Preparation of membranes containing recombinantly expressed sodium channels: Frozen recombinant cell pellets are thawed on ice and diluted to 4 times the cell pellet weight with ice cold 50 mM Tris HCl, pH 7.4 buffer. The cell suspensions are homogenized on ice using a motorized glass dounce homogeniser. Homogenates are further diluted 8.4 times with ice cold 50 mM Tris HCl, pH 7.4 buffer and then centrifuged at 200×g at 4° C. for 15 minutes. The supernatants are collected and centrifuged at 10000×g at 4° C. for 50 min. The pellets are then re-suspended in 100 mM NaCl, 20 mM Tris HCl, pH 7.4 buffer containing 1% v/v protease inhibitors (Calbiochem) and re-homogenized on ice. The homogenized membranes are then processed through a syringe equipped with a 26 gauge needle. Protein concentrations arer determined by Bradford Assay and the membranes are stored at −80° C.
Radioligand Binding Studies: Saturation experiments. A competitive NaV1.7 inhibitor having a methyl group is tritiated. Three tritiums are incorporated in place of methyl hydrogens to generate [^3H]compound. Binding of this radioligand is performed in 5 mL borosilicate glass test tubes at room temperature. Binding is initiated by adding membranes to increasing concentrations of [^3H]compound in 100 mM NaCl, 20 mM Tris HCl, pH 7.4 buffer containing 0.01% w/v bovine serum albumin (BSA) for 18 h. Non-specific binding is determined in the presence of 1 μM unlabeled compound. After 18 h, the reactants are filtered through GF/C glass fiber filters presoaked in 0.5% w/v polyethylene imine. Filters are washed with 15 mL ice cold 100 mM NaCl, 20 mM Tris HCl, pH7.4 buffer containing 0.25% BSA to separate bound from free ligand. [^3H]compound bound to filters is quantified by liquid scintillation counting.
Competitive binding experiments: Binding reactions are performed in 96-well polypropylene plates at room temperature for 18 h. In 360 μL, membranes are incubated with 100 pM [^3H]compound and increasing concentrations of Test Compound. Non-specific binding is defined in the presence of 1 μM unlabeled compound. Reactions are transferred and filtered through 96-well glass fiber/C filter plates presoaked with 0.5% polyethylene imine. The filtered reactions are washed 5 times with 200 μL ice cold buffer containing 0.25% BSA. Bound radioactivity is determined by liquid scintillation counting.
Data Analysis: For saturation experiments, non-specific binding is subtracted from total binding to provide specific binding and these values are recalculated in terms of pmol ligand bound per mg protein. Saturation curves are constructed and dissociation constants are calculated using the single site ligand binding model: Beq=(Bmax*X)/(X+Kd), where Beq is the amount of ligand bound at equilibrium, Bmax is the maximum receptor density, Kd is the dissociation constant for the ligand, and X is the free ligand concentration. For competition studies percent inhibition is determined and IC50 values are calculated using a 4 parameter logistic model (% inhibition=(A+((B−A)/(1+((x/C)^D)))) using XLfit, where A and B are the maximal and minimum inhibition respectively, C is the IC50 concentration and D is the (Hill) slope.
Example 64b. Tritiated Compound Binding to Membranes Isolated from Cells that Heterologous Express hNav1.7 and the β1 Subunit
Preparation of membranes containing recombinantly expressed sodium channels: Following the procedure described in 31a, and making modifications as required to: centrifuge supernatants at 100000×g instead of 10000×g; re-suspend pellets in a buffer containing 0.01% BSA in addition to 100 mM NaCl, 20 mM Tris HCl, pH 7.4 buffer, and 1% v/v […]; and storing membranes at −80° C. in single use aliquots instead of pooled. […]
Target sequence in this assay (Q15858 whole entry, looked up): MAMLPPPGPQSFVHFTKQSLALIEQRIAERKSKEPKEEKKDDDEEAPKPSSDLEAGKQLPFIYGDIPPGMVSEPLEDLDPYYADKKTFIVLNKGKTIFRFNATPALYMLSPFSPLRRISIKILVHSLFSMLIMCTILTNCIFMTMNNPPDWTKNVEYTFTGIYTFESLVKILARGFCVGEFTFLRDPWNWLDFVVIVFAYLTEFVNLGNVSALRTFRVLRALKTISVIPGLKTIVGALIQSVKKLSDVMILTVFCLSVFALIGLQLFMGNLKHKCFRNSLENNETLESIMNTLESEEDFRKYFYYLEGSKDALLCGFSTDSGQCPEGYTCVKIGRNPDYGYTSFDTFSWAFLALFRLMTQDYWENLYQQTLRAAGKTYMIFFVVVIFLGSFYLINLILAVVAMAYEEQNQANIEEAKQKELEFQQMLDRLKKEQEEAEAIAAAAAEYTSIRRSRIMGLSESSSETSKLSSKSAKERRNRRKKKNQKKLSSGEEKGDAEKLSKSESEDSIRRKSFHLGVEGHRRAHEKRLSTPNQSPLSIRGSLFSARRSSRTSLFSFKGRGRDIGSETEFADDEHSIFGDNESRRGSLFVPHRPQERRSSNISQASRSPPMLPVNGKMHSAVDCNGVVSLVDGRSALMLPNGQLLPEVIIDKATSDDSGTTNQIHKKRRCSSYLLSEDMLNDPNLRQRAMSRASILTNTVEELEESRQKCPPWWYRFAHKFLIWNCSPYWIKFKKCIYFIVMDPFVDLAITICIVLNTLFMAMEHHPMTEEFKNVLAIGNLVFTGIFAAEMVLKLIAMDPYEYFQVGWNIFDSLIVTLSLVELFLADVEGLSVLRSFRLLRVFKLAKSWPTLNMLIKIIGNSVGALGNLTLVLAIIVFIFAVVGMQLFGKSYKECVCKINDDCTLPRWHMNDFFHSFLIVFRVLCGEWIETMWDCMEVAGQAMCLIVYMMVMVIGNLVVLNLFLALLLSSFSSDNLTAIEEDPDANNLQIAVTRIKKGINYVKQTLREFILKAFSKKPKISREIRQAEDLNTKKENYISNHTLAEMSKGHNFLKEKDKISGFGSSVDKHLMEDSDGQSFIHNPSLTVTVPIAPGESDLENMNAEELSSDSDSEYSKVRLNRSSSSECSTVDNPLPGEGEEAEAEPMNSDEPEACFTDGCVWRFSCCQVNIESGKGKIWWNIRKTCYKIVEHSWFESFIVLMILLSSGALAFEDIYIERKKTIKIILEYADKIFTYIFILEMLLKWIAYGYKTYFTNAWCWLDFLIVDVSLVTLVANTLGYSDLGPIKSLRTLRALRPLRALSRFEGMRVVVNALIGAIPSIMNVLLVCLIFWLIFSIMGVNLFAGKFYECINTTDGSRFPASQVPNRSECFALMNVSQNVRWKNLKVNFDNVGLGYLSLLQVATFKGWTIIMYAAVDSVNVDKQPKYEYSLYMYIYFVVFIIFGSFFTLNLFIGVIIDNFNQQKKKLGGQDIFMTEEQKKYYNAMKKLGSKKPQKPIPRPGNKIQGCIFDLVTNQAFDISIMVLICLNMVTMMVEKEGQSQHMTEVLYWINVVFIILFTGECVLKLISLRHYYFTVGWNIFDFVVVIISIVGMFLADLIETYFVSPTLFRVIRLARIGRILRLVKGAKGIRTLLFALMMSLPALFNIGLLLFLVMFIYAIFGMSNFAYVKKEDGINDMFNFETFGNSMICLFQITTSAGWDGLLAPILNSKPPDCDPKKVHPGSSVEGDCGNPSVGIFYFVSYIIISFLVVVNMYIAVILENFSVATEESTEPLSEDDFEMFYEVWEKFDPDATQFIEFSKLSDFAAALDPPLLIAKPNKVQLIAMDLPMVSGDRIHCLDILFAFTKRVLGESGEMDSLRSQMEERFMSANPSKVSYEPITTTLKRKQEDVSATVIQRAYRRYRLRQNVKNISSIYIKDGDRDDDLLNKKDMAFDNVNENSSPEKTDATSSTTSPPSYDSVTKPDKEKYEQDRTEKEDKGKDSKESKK
Target sequence in this assay (Q07699 whole entry partner, looked up): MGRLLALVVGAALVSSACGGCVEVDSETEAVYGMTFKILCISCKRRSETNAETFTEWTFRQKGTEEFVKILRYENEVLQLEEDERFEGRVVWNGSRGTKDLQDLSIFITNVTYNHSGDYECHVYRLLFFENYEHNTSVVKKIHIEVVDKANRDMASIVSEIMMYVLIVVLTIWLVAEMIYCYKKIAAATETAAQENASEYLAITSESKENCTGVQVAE
Consider “6-(((1S,2S,4S)-2-(dimethylamino)-4-(6-(trifluoromethyl)pyridin-2-yl)cyclohexyl)oxy)-2-methyl-N-(pyrimidin-4-yl)pyridine-3-sulfonamide [Example 51]”, for which the IC50 was 0.985 nM.

Consider `CN(C)[C@H]1C[C@@H](c2cccc(OC(F)(F)F)c2)CC[C@@H]1Nc1ccc(S(=O)(=O)Nc2ccncn2)cn1` [Example 8, 6-(((1S,2S,4S)-2-(dimethylamino)-4-(3-(trifluoromethoxy)phenyl)cyclohexyl)amino)-N-(pyrimidin-4-yl)pyridine-3-sulfonamide formate], for which the IC50 stood at 7.12 nM.

With `CCN(C)[C@H]1C[C@@H](c2cccc(C(F)(F)F)c2)CC[C@@H]1Oc1ccc(S(=O)(=O)Nc2ccncn2)c(C)n1` [Example 48, 6-(((1S,2S,4S)-2-(Ethyl(methyl)amino)-4-(3-(trifluoromethyl)phenyl)cyclohexyl)oxy)-2-methyl-N-(pyrimidin-4-yl)pyridine-3-sulfonamide], the IC50 worked out at 0.75 nM.

Compound `Cc1nc(O[C@H]2CC[C@H](c3cc(Cl)cc(C(F)(F)F)c3)C[C@@H]2N(C)C)ccc1S(=O)(=O)Nc1ccncn1` [Example 49, 6-(((1S,2S,4S)-4-(3-chloro-5-(trifluoromethyl)phenyl)-2-(dimethylamino)cyclohexyl)oxy)-2-methyl-N-(pyrimidin-4-yl)pyridine-3-sulfonamide] yielded an IC50 of 1.2 nM.

In turn, `Cc1nc(O[C@H]2CC[C@H](c3cccc(OC(F)F)c3)C[C@@H]2N(C)C)ccc1S(=O)(=O)Nc1ccncn1` [Example 52, 6-(((1S,2S,4S)-4-(3-(difluoromethoxy)phenyl)-2-(dimethylamino)cyclohexyl)oxy)-2-methyl-N-(pyrimidin-4-yl)pyridine-3-sulfonamide] came in with an IC50 of 0.615 nM.

Consider `Cc1nc(O[C@H]2CC[C@H](c3cccc(C(F)(F)F)c3)C[C@@H]2N(C)C)c(F)cc1S(=O)(=O)Nc1ccncn1` [Example 53, 6-(((1S,2S,4S)-2-(Dimethylamino)-4-(3-(trifluoromethyl)phenyl)cyclohexyl)oxy)-5-fluoro-2-methyl-N-(pyrimidin-4-yl)pyridine-3-sulfonamide formate], for which the IC50 is 0.615 nM.

`Cc1ccc(C(F)(F)F)cc1[C@H]1CC[C@H](Oc2ccc(S(=O)(=O)Nc3ccncn3)c(C)n2)[C@@H](N(C)C)C1` [Example 54, 6-(((1S,2S,4S)-2-(dimethylamino)-4-(2-methyl-5-(trifluoromethyl)phenyl)cyclohexyl)oxy)-2-methyl-N-(pyrimidin-4-yl)pyridine-3-sulfonamide] yielded an IC50 of 0.695 nM.

`Cc1nc(O[C@H]2CC[C@H](c3cccc(C(F)(F)F)c3)C[C@@H]2N2CCOCC2)ccc1S(=O)(=O)Nc1ccncn1` [Example 55, 2-Methyl-6-(((1S,2S,4S)-2-morpholino-4-(3-(trifluoromethyl)phenyl)cyclohexyl)oxy)-N-(pyrimidin-4-yl)pyridine-3-sulfonamide] had an IC50 of 1.72 nM.

The compound `Cc1ccc([C@H]2CC[C@H](Oc3ccc(S(=O)(=O)Nc4ccncn4)c(C)n3)[C@@H](N(C)C)C2)cc1C(F)(F)F` [Example 56, 6-(((1S,2S,4S)-2-(dimethylamino)-4-(4-methyl-3-(trifluoromethyl)phenyl)cyclohexyl)oxy)-2-methyl-N-(pyrimidin-4-yl)pyridine-3-sulfonamide formate] gave an IC50 of 1.32 nM.

Compound `Cc1cc([C@H]2CC[C@H](Oc3ccc(S(=O)(=O)Nc4ccncn4)c(C)n3)[C@@H](N(C)C)C2)cc(C(F)(F)F)c1` [Example 58, 6-(((1S,2S,4S)-2-(dimethylamino)-4-(3-methyl-5-(trifluoromethyl)phenyl)cyclohexyl)oxy)-2-methyl-N-(pyrimidin-4-yl)pyridine-3-sulfonamide] came in with an IC50 of 2.86 nM.

As for `Cc1nc(O[C@H]2CC[C@H](c3cccc(CC(F)(F)F)c3)C[C@@H]2N(C)C)ccc1S(=O)(=O)Nc1ccncn1` [Example 59, 6-(((1S,2S,4S)-2-(dimethylamino)-4-(3-(2,2,2-trifluoroethyl)phenyl)cyclohexyl)oxy)-2-methyl-N-(pyrimidin-4-yl)pyridine-3-sulfonamide], the IC50 was 1.59 nM.

In turn, `Cc1nc(O[C@H]2CC[C@H](c3cccc(C(F)(F)F)c3C)C[C@@H]2N(C)C)ccc1S(=O)(=O)Nc1ccncn1` [Example 60, 6-(((1S,2S,4S)-2-(dimethylamino)-4-(2-methyl-3-(trifluoromethyl)phenyl)cyclohexyl)oxy)-2-methyl-N-(pyrimidin-4-yl)pyridine-3-sulfonamide] registered an IC50 of 3.51 nM.

With `COc1cc(S(=O)(=O)Nc2ccncn2)cnc1O[C@H]1CC[C@H](c2cccc(C(F)(F)F)c2)C[C@@H]1N(C)C` [Example 61, 6-(((1S,2S,4S)-2-(Dimethylamino)-4-(3-(trifluoromethyl)phenyl)cyclohexyl)oxy)-5-methoxy-N-(pyrimidin-4-yl)pyridine-3-sulfonamide formate], the IC50 worked out at 1.9 nM.

Consider `Cc1nc(O[C@H]2CC[C@H](c3ccc(Cl)c(C(F)(F)F)n3)C[C@@H]2N(C)C)ccc1S(=O)(=O)Nc1ccncn1` [Example 62, 6-(((1S,2S,4S)-4-(5-chloro-6-(trifluoromethyl)pyridin-2-yl)-2-(dimethylamino)-cyclohexyl)oxy)-2-methyl-N-(pyrimidin-4-yl)pyridine-3-sulfonamide], for which the IC50 was 1.89 nM.

In turn, `CN(C)[C@H]1C[C@@H](c2cccc(SC(F)(F)F)c2)CC[C@@H]1Oc1ccc(S(=O)(=O)Nc2ccncn2)cn1` [Example 63, 6-(((1S,2S,4S)-2-(Dimethylamino)-4-(3-((trifluoromethyl)thio)phenyl)cyclohexyl)oxy)-N-(pyrimidin-4-yl)pyridine-3-sulfonamide] registered an IC50 of 0.635 nM.

By IC50 is commonly meant the concentration that gives 50% inhibition.

Values taken from patent US12209075B2, “Pyridine-sulfonamide derivatives as sodium channel inhibitors” (GENENTECH, INC., priority 2018, dated 2025).
